In patent US12485187B2, “Method for improving retroviral transduction and gene editing in hematopoietic stem cells using clyclosporin H and UM171” (Ospedale San Raffaele S.R.L, priority 2017, dated 2025):

Key:
human CD34+ HSPCs = conditions: for effect on LV transduction of combining the compound with CsH: hCB- and mPB-derived HSPC, LV MOI 1 or 10
human HSPCs = assay: Colony-forming cell assay; type: cell-based
Method: Colony-forming cell assays were performed by plating 8×10^2 human HSPCs transduced in the presence of the different compounds in a methylcellulose-based medium (Methocult GF4434; Stem Cell Technologies). Fifteen days later colonies were scored by light microscopy for colony numbers and morphology. CFU-E and BFU-E were scored as erythroid colonies, while CFU-G, CFU-M and CFU-GM and CFU-GEMM were scored as myeloid colonies. Moreover, single colonies were plucked for molecular analysis.

CB-derived CD34+ HSPCs = conditions: Wang et al. 2014; cited from earlier work

| Structure (SMILES) | effect on LV transduction of combining the compound with CsH (human CD34+ HSPCs) | colony-forming capacity (human HSPCs; mPB-CD34+ cells, IDUA-LV MOI 50, vs control) | LV integration site profile in human HSPCs (CB-derived CD34+ HSPCs) | VCN in vitro (human CD34+ HSPCs; BM-derived CD34+ cells, single hit IDUA/ARSA-LV vs two-hit standard (MOI 100)) | transduction efficiency of clinical-grade IDUA and ARSA-LV (human CD34+ HSPCs; BM-derived CD34+ cells, single hit vs one-hit control without drugs) | colony-forming capacity (human HSPCs; BM-derived CD34+ cells transduced with IDUA or ARSA LV) |
| --- | --- | --- | --- | --- | --- | --- |
| CCCCC[C@H](O)/C=C/[C@H]1[C@H](O)CC(=O)[C@@H]1C/C=C\CCCC(=O)O [prostaglandin E2, Prostaglandin E2, reference compound] | additive | No differences in colony-forming capacity |  |  |  |  |
| CO[C@H]1C[C@@H]2CC[C@@H](C)[C@@](O)(O2)C(=O)C(=O)N2CCCC[C@H]2C(=O)O[C@H]([C@H](C)C[C@@H]2CC[C@@H](O)[C@H](OC)C2)CC(=O)[C@H](C)/C=C(\C)[C@@H](O)[C@@H](OC)C(=O)[C@H](C)C[C@H](C)/C=C/C=C/C=C/1C [rapamycin, Rapamycin, reference compound] | additive |  | not to impact the LV integration site profile in human HSPCs | comparable to the two-hit gold standard | able to increase transduction efficiency | no alterations in colony-forming capacity were observed |
